Biological target: T1, bovine cerebral TPK1 (Bos taurus, UniProt A0A3Q1MT31)
T1 construct: bovine cerebral TPK1; from tissue; host or cells: bovine brain (cerebrum)
Assay: Inhibitory activity against P-GS1 phosphorylation by bovine cerebral TPK1
Assay type: biochemical
Details: 41.7 μM [γ-32P] ATP, 25° C. for 2 hours
Experimental: Inhibitory Activity of the Medicament of the Present Invention Against P-GS1 Phosphorylation by Bovine Cerebral TPK1
A mixture containing 100 mM MES-sodium hydroxide (pH 6.5), 1 mM magnesium acetate, 0.5 mM EGTA, 5 mM β-mercaptoethanol, 0.02% Tween 20, 10% glycerol, 12 μg/ml P-GS1, 41.7 μM [γ^−32P] ATP (68 kBq/ml), bovine cerebral TPK1 and a compound shown in Table (a final mixture contained 1.7% DMSO deriving from a solution of a test compound prepared in the presence of 10% DMSO) was used as a reaction system. The phosphorylation was started by adding ATP, and the reaction was conducted at 25° C. for 2 hours, and then stopped by adding 21% perchloric acid on ice cooling. The reaction mixture was centrifuged at 12,000 rpm for 5 minutes and adsorbed on P81 paper (Whatmann), and then the paper was washed four times with 75 mM phosphoric acid, three times with water and once with acetone. The paper was dried, and the residual radioactivity was measured using a liquid scintillation counter.

T1 sequence (A0A3Q1MT31 1-419): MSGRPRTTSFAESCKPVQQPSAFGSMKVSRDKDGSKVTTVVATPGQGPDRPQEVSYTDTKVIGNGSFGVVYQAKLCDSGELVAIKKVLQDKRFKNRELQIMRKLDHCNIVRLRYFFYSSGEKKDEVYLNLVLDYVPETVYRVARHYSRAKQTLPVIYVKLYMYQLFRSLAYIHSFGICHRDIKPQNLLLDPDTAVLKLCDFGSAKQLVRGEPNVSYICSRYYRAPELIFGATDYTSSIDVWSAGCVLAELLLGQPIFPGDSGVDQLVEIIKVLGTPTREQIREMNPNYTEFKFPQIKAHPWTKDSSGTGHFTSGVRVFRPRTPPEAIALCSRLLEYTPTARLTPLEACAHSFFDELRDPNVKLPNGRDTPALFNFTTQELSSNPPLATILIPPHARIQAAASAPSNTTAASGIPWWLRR

IC50 [nM]	Structure (SMILES)
86.3	O=c1cc(-c2ccncn2)nc(N2CCO[C@@H](c3ccc(F)cc3)C2)[nH]1 [Compound 2, 2-[(2S)-2-(4-Fluorophenyl)morpholin-4-yl]-1H-[4,4′]bipyrimidinyl-6-one]
59.8	O=c1cc(-c2ccncc2F)nc(N2CCO[C@@H](c3ccc(F)cc3)C2)[nH]1 [Compound 3, 2-[(2S)-2-(4-Fluoro-phenyl)-morpholin-4-yl]-6-(3-fluoro-pyridin-4-yl)-3H-pyrimidin-4-one]
